Test system: 12-weeks-old ob/ob islets
Experiment: Caspase 3/7 activity assay (apoptosis)
Type: cell-based, mouse
Settings: β-cells from 12-weeks old ob/ob mice incubated overnight with the Ca2+-channel blocker
Protocol: ApoCIII expression was measured by real-time qPCR to determine the efficacy of apoCIII knockdown in cultured islets (n=4). […] (c) 25 mM KCl was used to induce depolarization and subsequent Ca^2+ influx (n=9-10). (d) Caspase 3/7 activity in ob/ob islets isolated from animals at 4-, 8- and 12-weeks of age (n=4). (e) Decrease in caspase activity in β-cells from 12-weeks old ob/ob mice either incubated overnight with the Ca^2+-channel blocker verapamil (left column) or exposed to apoCIII antisense (right column) (n=4). Data presented as mean±SEM. *P<0.05, ** P<0.01 by student's t-test or ANOVA (Tukey's post-hoc).
Caspase assay. Activity of capase 3/7 was determined using SensoLyte™ Homogeneous Rh110 Caspase 3/7 assay kit according to manufacturer's instructions, with modifications (AnaChem, USA). Briefly, islets or cells were harvested, lysed using lysis buffer (AnaChem, USA) and the protein quantified using BCA method. 10 μg of protein was loaded in a black 384-well plate and topped up with the appropriate amount of assay buffer (AnaChem, USA) containing Rh110 Caspase 3/7 Substrate. Plate was incubated in the dark for 1 hour at 24° C. Fluorescence intensity at Ex/Em=490/520nm was measured to determine the relative caspase activity.
It was determined if reducing endogenous apoCIII affects apoptosis in ob/ob islets. […]

COc1ccc(CCN(C)CCCC(C#N)(c2ccc(OC)c(OC)c2)C(C)C)cc1OC (stereo not shown) [verapamil]
reduction of caspase activity: 15%
